Assays:
Experiment in all cases: Weeding effect in post-emergence stage
Assay type in all cases: in vivo
Conditions in all cases: fresh weight control rate level
Abutilon theophrasti = tested on: Abutilon theophrasti
Outline: (§1)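 Seeds are sown in soil-filled pots under 0.5-2 cm soil and grown 2 weeks in greenhouse. Plants at 2-3 leaves are sprayed with compound (acetone, Tween 80, 1.5 liter/ha methyl oleate EC, water) at 7.5 to 500 g/ha. Damage is rated 3 weeks later, averaging three repeats.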

Alopecurus japonicus = tested on: Alopecurus japonicus
Outline: as §1

Digitaria sanguinalis = tested on: Digitaria sanguinalis
Outline: as §1

Eleusine indica = tested on: Eleusine indica
Outline: as §1

Setaria viridis = tested on: Setaria viridis
Outline: as §1

Echinochloa crusgalli = tested on: Echinochloa crusgalli
Outline: as §1

| SMILES | Weeding effect in post-emergence stage, Abutilon theophrasti (level) (Abutilon theophrasti; Dose 15 g/ha) | Weeding effect in post-emergence stage, Alopecurus japonicus (level) (Alopecurus japonicus; Dose 15 g/ha) | Weeding effect in post-emergence stage, Digitaria sanguinalis (level) (Digitaria sanguinalis; Dose 15 g/ha) | Weeding effect in post-emergence stage, Eleusine indica (level) (Eleusine indica; Dose 15 g/ha) | Weeding effect in post-emergence stage, Setaria viridis (level) (Setaria viridis; Dose 15 g/ha) | Weeding effect in post-emergence stage, Echinochloa crusgalli (level) (Echinochloa crusgalli; Dose 15 g/ha) | Weeding effect in post-emergence stage, Abutilon theophrasti (level) (Abutilon theophrasti; Dose 30 g/ha) | Weeding effect in post-emergence stage, Alopecurus japonicus (level) (Alopecurus japonicus; Dose 30 g/ha) | Weeding effect in post-emergence stage, Digitaria sanguinalis (level) (Digitaria sanguinalis; Dose 30 g/ha) | Weeding effect in post-emergence stage, Eleusine indica (level) (Eleusine indica; Dose 30 g/ha) | Weeding effect in post-emergence stage, Setaria viridis (level) (Setaria viridis; Dose 30 g/ha) | Weeding effect in post-emergence stage, Echinochloa crusgalli (level) (Echinochloa crusgalli; Dose 30 g/ha) |
| --- | --- | --- | --- | --- | --- | --- | --- | --- | --- | --- | --- | --- |
| COC(=O)[C@@H](CC(C)C)O/N=C/c1cc(-n2c(=O)cc(C(F)(F)F)n(C)c2=O)c(F)cc1Cl [455(R)] | 5 (Level 5: growth control rate is above 85%) | 5 (Level 5: growth control rate is above 85%) | 5 (Level 5: growth control rate is above 85%) | 5 (Level 5: growth control rate is above 85%) | 5 (Level 5: growth control rate is above 85%) | 5 (Level 5: growth control rate is above 85%) | – | – | – | – | – | – |
| COC(=O)[C@H](O/N=C/c1cc(-n2c(=O)cc(C(F)(F)F)n(C)c2=O)c(F)cc1Cl)C1CC1 [456(R)] | – | – | – | – | – | – | 5 (Level 5: growth control rate is above 85%) | 5 (Level 5: growth control rate is above 85%) | 5 (Level 5: growth control rate is above 85%) | 5 (Level 5: growth control rate is above 85%) | 5 (Level 5: growth control rate is above 85%) | 5 (Level 5: growth control rate is above 85%) |
| COC(=O)[C@@H](CC1CC1)O/N=C/c1cc(-n2c(=O)cc(C(F)(F)F)n(C)c2=O)c(F)cc1Cl [462(R)] | 5 (Level 5: growth control rate is above 85%) | 5 (Level 5: growth control rate is above 85%) | 5 (Level 5: growth control rate is above 85%) | 5 (Level 5: growth control rate is above 85%) | 5 (Level 5: growth control rate is above 85%) | 5 (Level 5: growth control rate is above 85%) | – | – | – | – | – | – |
| COC(=O)[C@H](CF)O/N=C/c1cc(-n2c(=O)cc(C(F)(F)F)n(C)c2=O)c(F)cc1Cl [463(R)] | 5 (Level 5: growth control rate is above 85%) | 5 (Level 5: growth control rate is above 85%) | 5 (Level 5: growth control rate is above 85%) | 5 (Level 5: growth control rate is above 85%) | 5 (Level 5: growth control rate is above 85%) | 5 (Level 5: growth control rate is above 85%) | – | – | – | – | – | – |
| COC(=O)[C@@H](C)O/N=C/c1cc(-n2c(=O)c(C)c(C(F)(F)F)n(C)c2=O)c(F)cc1Cl [473(R)] | – | – | – | – | – | – | 5 (Level 5: growth control rate is above 85%) | 5 (Level 5: growth control rate is above 85%) | 5 (Level 5: growth control rate is above 85%) | 5 (Level 5: growth control rate is above 85%) | 5 (Level 5: growth control rate is above 85%) | 5 (Level 5: growth control rate is above 85%) |
| C[C@@H](O/N=C/c1cc(-n2c(=O)cc(C(F)(F)F)n(C)c2=O)c(F)cc1Cl)C(=O)OCc1ccc(Cl)nc1 [495(R)] | 5 (Level 5: growth control rate is above 85%) | 5 (Level 5: growth control rate is above 85%) | 5 (Level 5: growth control rate is above 85%) | 5 (Level 5: growth control rate is above 85%) | 5 (Level 5: growth control rate is above 85%) | 5 (Level 5: growth control rate is above 85%) | – | – | – | – | – | – |
| C[C@@H](O/N=C/c1cc(-n2c(=O)cc(C(F)(F)F)n(C)c2=O)c(F)cc1Cl)C(=O)OCCC1OCCO1 [498(R)] | 5 (Level 5: growth control rate is above 85%) | 5 (Level 5: growth control rate is above 85%) | 5 (Level 5: growth control rate is above 85%) | 5 (Level 5: growth control rate is above 85%) | 5 (Level 5: growth control rate is above 85%) | 5 (Level 5: growth control rate is above 85%) | – | – | – | – | – | – |
| C[C@@H](O/N=C/c1cc(-n2c(=O)cc(C(F)(F)F)n(C)c2=O)c(F)cc1Cl)C(N)=O [499(R)] | 5 (Level 5: growth control rate is above 85%) | 5 (Level 5: growth control rate is above 85%) | 5 (Level 5: growth control rate is above 85%) | 5 (Level 5: growth control rate is above 85%) | 5 (Level 5: growth control rate is above 85%) | 5 (Level 5: growth control rate is above 85%) | – | – | – | – | – | – |
| C/C(Cl)=C/COC(=O)[C@@H](C)O/N=C/c1cc(-n2c(=O)cc(C(F)(F)F)n(C)c2=O)c(F)cc1Cl [500(R)] | 5 (Level 5: growth control rate is above 85%) | 5 (Level 5: growth control rate is above 85%) | 5 (Level 5: growth control rate is above 85%) | 5 (Level 5: growth control rate is above 85%) | 5 (Level 5: growth control rate is above 85%) | 5 (Level 5: growth control rate is above 85%) | – | – | – | – | – | – |
| C=C(Cl)COC(=O)[C@@H](C)O/N=C/c1cc(-n2c(=O)cc(C(F)(F)F)n(C)c2=O)c(F)cc1Cl [501(R)] | 5 (Level 5: growth control rate is above 85%) | 5 (Level 5: growth control rate is above 85%) | 5 (Level 5: growth control rate is above 85%) | 5 (Level 5: growth control rate is above 85%) | 5 (Level 5: growth control rate is above 85%) | 5 (Level 5: growth control rate is above 85%) | – | – | – | – | – | – |
| CCN(CC)C(=O)[C@@H](C)O/N=C/c1cc(-n2c(=O)cc(C(F)(F)F)n(C)c2=O)c(F)cc1Cl [502(R)] | 5 (Level 5: growth control rate is above 85%) | 5 (Level 5: growth control rate is above 85%) | 5 (Level 5: growth control rate is above 85%) | 5 (Level 5: growth control rate is above 85%) | 5 (Level 5: growth control rate is above 85%) | 5 (Level 5: growth control rate is above 85%) | – | – | – | – | – | – |

— patent publication US20230111310A1, “CARBOXYLIC ACID DERIVATIVE-SUBSTITUTED IMINO ARYL COMPOUND, PREPARATION METHOD THEREFOR, HERBICIDAL COMPOSITION AND USE THEREOF” (Qingdao Kingagroot Chemical Compound Co., Ltd., priority 2020, published 2023)
